Data published in ChEMBL document CHEMBL1201862, “PubChem BioAssay data set” (2004).
Activity calls are given as the source filed them.

Columns and labels:
[1] = molecular target: FAD-linked sulfhydryl oxidase ALR (Homo sapiens, UniProt P55789); assay: inhibitors of human ALR sulfhydryl oxidase, dose response, biochemical, H2O2 detection, luminescence, cherry-pick (AID 493248)
[2] = molecular target: SWI/SNF-related matrix-associated actin-dependent regulator of chromatin subfamily A member 2 (Homo sapiens, UniProt P51531); assay: Luminescence-based cell-based high throughput dose response assay to identify activators of the function of SWI/SNF related, matrix associated, actin dependent regulator of chromatin, subfamily a, member 2 (SMARCA2, BRM).; type: functional
Chain of SWI/SNF-related matrix-associated actin-dependent regulator of chromatin subfamily A member 2 (P51531 whole entry): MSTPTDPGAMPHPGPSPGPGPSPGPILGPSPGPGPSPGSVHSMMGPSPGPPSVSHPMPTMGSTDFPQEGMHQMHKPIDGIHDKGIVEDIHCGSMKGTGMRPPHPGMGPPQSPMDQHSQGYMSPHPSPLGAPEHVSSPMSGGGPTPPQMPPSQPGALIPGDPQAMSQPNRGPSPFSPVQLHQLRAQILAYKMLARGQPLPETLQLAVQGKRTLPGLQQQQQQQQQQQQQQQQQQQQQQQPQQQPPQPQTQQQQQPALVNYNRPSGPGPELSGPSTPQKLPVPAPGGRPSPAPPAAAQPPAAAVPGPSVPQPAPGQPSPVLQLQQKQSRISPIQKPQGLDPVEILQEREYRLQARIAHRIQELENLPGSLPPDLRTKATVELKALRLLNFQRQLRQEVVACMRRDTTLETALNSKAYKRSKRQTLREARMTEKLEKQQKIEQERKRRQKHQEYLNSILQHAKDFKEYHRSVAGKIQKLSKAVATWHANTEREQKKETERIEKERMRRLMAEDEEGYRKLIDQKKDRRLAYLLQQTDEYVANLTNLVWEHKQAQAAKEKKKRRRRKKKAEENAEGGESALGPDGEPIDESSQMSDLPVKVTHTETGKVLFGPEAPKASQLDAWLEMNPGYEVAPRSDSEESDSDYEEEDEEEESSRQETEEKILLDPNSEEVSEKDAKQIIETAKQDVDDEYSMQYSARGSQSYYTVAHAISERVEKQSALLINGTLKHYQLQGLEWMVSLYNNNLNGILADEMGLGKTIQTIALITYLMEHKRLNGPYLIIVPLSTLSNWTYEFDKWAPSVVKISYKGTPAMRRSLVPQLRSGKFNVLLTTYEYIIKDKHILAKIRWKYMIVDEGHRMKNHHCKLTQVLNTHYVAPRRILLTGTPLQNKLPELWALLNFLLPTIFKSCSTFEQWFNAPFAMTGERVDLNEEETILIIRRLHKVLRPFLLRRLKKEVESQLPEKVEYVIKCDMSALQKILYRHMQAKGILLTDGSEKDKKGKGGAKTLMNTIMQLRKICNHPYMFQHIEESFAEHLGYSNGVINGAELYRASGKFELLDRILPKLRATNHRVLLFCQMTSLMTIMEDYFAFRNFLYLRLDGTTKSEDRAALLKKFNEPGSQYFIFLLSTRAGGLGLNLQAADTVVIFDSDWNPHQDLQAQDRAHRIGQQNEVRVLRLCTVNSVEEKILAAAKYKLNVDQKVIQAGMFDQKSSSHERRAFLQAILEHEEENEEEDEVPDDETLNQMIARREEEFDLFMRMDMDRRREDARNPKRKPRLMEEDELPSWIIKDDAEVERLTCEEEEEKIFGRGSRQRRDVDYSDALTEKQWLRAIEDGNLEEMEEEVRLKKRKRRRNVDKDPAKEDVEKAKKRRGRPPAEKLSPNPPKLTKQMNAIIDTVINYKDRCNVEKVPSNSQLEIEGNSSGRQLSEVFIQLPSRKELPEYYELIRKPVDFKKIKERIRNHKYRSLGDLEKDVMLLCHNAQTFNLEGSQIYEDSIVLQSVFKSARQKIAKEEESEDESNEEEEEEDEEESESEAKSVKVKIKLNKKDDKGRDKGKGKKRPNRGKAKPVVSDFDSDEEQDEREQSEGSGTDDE

[3] = Counterscreen for activators of the function of SWI/SNF related, matrix associated, actin dependent regulator of chromatin, subfamily a, member 2 (SMARCA2, BRM): Luminescence-based cell-based high throughput dose response assay to identify non-selective compounds using the VP16 reporter assay.; type: functional
[4] = molecular target: T1, Replicative DNA helicase DnaB (Mycobacterium tuberculosis, UniProt P9WMR3); assay: DnaB intein splicing inhibitors, dose response, biochemical, cell-free fluorescence (AID 449749); type: functional
T1 sequence (P9WMR3 whole entry): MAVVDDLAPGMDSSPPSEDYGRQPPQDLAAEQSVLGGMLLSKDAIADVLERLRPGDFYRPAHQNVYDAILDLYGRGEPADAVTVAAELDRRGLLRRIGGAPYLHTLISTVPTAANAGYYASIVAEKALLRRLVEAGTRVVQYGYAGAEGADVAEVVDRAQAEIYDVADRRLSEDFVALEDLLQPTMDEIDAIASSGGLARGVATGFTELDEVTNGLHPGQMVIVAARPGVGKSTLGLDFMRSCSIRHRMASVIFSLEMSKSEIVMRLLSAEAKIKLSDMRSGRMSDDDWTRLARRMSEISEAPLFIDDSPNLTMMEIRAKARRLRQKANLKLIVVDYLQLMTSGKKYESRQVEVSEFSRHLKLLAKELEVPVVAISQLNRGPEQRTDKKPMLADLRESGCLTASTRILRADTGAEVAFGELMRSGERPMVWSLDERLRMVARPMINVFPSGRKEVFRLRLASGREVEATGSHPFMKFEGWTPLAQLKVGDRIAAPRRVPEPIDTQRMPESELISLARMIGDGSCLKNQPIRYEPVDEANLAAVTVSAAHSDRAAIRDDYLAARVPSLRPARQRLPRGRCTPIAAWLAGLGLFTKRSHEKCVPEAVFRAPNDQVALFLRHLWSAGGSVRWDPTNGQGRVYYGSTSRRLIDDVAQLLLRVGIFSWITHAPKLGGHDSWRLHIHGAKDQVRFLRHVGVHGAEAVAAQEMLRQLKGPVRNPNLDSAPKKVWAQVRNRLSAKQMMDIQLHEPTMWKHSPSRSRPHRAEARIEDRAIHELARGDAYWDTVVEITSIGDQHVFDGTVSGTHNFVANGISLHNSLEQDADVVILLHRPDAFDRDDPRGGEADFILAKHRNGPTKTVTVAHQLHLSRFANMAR

[5] = molecular target: T2, Protein RecA (Mycobacterium tuberculosis, UniProt P9WHJ3); assay: Fluorescence Cell-Free Homogeneous Dose Retest to Identify Inhibitors of RecA-Intein Splicing Activity. [Related pubchem assays (depositor defined):AID2097, AID2223, AID489010, AID492950]; type: functional
T2 sequence (P9WHJ3 whole entry): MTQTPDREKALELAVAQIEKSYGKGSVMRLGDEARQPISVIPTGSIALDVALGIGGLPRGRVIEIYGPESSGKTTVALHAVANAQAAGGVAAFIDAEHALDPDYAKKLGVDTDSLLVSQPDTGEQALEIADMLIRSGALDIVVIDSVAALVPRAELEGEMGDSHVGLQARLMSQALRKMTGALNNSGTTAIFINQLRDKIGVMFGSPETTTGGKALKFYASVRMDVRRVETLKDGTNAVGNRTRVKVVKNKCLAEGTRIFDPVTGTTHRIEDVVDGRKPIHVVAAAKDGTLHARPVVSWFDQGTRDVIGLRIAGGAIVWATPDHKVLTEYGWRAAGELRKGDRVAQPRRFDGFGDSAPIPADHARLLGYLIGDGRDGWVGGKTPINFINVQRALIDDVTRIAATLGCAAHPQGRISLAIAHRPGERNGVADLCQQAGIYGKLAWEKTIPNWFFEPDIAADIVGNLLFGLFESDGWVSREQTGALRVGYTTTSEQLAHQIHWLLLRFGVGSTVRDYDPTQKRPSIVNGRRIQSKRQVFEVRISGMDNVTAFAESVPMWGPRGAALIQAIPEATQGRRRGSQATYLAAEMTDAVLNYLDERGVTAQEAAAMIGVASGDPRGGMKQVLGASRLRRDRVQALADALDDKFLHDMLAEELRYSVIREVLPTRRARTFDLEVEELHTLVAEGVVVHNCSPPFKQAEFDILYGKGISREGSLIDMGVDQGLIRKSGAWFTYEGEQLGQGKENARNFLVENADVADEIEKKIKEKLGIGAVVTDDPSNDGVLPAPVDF

[6] = Shn3 3'UTR reporter inhibitors, dose response, cell-based, Clone20 osteoblasts, firefly luciferase, cherry-picked (AID 624132); type: functional;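 note: firefly luciferase luminescence from reporter carrying the Shn3 3'UTR in osteoblasts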
[7] = HepG2 cell cytotoxicity, dose response, cytotoxicity control for Shn3 inhibitor project, CellTiter-Glo, cherry-picked (AID 624134); type: functional, cell-based
[8] = control 3'UTR Renilla luciferase suppression, dose response, counter-screen for Shn3 inhibitor project, cell-based, Clone20-Shn3RL, cherry-picked (AID 624133); type: functional
[9] = Fluorescence-based cell-based high throughput dose response assay for inhibitors of the interaction of nucleotide-binding oligomerization domain containing 2 (NOD2) and the receptor-interacting serine-threonine kinase 2 (RIPK2).; type: functional; settings: Homo sapiens
[10] = molecular target: Beta Lactamase (Pseudomonas aeruginosa, UniProt Q932Y6); assay: beta-lactamase reporter inhibitor potency, dose response, artefact control for NOD2-RIPK2 interaction inhibitor project, BLA reporter cells, FRET fluorescence (AID 651552); type: functional, cell-based
Chain of Beta Lactamase (Q932Y6 whole entry): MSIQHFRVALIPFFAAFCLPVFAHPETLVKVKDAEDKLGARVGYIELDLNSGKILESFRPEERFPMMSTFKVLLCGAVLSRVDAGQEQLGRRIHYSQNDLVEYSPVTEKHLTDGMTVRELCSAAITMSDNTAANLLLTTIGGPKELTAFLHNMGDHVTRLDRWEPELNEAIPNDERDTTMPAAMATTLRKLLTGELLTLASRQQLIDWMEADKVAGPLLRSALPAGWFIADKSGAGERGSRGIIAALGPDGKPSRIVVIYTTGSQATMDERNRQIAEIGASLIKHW

[11] = cells; type: functional, cell-based
[12] = cytotoxicity in HEK-293T cells, dose response, cytotoxicity control for BCR NF-kB inhibitor project, luminescence, B-cell screen hits (AID 489021); type: functional, cell-based;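 note: HEK-293T cells carrying an NF-kB luciferase reporter; cells exposed to compound for about 14 hours before viability readout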
[13] = molecular target: T3, Protein Wnt-3a (Mus musculus, UniProt P27467); assay: Wnt3a-driven reporter signaling inhibition, dose response, selectivity assay for Gli-SUFU antagonist project, Wnt-LIGHT cells, luminescence (AID 651570); type: functional; settings: read-out: IC50_Mean;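 note: Wnt-LIGHT reporter cells stimulated with conditioned medium from Wnt3a-producing cells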
T3 sequence (P27467 whole entry): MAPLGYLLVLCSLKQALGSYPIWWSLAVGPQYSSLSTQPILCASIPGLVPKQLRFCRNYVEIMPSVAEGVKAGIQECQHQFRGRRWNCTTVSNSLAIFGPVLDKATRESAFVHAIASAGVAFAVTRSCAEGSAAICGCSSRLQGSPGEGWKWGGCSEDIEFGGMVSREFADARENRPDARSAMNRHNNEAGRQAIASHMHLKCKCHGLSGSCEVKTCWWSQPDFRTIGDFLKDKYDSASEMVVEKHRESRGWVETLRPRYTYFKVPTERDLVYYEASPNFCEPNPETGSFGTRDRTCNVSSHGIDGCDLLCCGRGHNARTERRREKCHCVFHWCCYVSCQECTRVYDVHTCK

[14] = molecular target: T3, Protein Wnt-3a; assay: SAR analysis of small molecule antagonists of Gli-SUFU in a Wnt3a luminescent reporter assay.; type: functional
[15] = molecular target: Glucose-6-phosphate 1-dehydrogenase (Homo sapiens, UniProt P11413); assay: human G6PD enzyme inhibitors, dose response, selectivity assay for P. falciparum G6PD inhibitor project, biochemical, fluorescence (AID 504792); type: functional
Chain of Glucose-6-phosphate 1-dehydrogenase (P11413 whole entry): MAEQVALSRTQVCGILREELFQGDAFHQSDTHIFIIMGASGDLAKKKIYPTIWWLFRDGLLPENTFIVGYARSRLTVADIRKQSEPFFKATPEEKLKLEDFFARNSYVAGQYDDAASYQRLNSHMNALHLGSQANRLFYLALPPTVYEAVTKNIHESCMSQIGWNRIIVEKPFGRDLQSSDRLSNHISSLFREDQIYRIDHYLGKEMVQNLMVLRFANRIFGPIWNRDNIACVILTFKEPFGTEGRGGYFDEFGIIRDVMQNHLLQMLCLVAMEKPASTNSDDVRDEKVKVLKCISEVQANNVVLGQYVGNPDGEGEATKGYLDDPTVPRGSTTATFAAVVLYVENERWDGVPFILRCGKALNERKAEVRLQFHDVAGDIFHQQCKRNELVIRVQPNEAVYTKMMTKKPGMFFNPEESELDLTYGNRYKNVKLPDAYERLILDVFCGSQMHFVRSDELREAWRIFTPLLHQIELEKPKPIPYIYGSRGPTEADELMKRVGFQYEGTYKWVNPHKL

[16] = molecular target: Heat shock protein HSP 90-alpha (Homo sapiens, UniProt P07900); type: functional, organism-based
[17] = tested on: Vero; assay: Vero cell cytotoxicity, cytotoxicity control for flavivirus capping enzyme inhibitors (AID 588742); type: functional; settings: Chlorocebus sabaeus
[18] = molecular target: Genome polyprotein (dengue virus type 2, UniProt P29990); assay: Dengue-2 NS5 methyltransferase inhibitors, primary screen, biochemical, confirmation dose response (AID 588689); type: functional
Chain of Genome polyprotein (P29990 2492-3391 limits assumed): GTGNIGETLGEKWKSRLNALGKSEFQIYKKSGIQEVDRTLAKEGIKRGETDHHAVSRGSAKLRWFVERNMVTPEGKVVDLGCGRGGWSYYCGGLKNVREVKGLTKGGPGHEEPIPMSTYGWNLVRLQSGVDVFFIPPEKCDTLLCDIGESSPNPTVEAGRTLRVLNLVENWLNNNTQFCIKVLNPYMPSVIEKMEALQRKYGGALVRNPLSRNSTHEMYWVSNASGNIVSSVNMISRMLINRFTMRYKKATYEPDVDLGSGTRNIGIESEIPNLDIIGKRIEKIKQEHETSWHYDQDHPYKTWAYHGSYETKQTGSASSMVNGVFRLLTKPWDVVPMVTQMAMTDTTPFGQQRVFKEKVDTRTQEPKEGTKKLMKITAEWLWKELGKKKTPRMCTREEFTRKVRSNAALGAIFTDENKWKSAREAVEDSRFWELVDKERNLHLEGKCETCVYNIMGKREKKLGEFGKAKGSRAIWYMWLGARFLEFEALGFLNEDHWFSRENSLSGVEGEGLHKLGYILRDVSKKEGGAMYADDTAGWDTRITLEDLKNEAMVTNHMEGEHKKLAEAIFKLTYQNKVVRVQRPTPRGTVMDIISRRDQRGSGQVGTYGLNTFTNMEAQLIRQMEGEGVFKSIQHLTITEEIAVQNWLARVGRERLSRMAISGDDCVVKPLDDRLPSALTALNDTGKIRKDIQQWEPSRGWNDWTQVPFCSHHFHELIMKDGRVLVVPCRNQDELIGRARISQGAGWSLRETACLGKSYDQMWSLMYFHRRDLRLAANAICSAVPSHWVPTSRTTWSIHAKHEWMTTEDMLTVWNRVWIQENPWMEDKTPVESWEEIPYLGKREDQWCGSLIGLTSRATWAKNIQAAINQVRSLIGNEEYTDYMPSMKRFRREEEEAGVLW

[19] = molecular target: Photoreceptor-specific nuclear receptor (Homo sapiens, UniProt Q9Y5X4); type: functional, cell-based;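 note: CHO-S cells with Gal4-NCOR and VP16-NR2E3 two-hybrid luciferase reporter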
Chain of Photoreceptor-specific nuclear receptor (Q9Y5X4 whole entry, the tested form may be a part): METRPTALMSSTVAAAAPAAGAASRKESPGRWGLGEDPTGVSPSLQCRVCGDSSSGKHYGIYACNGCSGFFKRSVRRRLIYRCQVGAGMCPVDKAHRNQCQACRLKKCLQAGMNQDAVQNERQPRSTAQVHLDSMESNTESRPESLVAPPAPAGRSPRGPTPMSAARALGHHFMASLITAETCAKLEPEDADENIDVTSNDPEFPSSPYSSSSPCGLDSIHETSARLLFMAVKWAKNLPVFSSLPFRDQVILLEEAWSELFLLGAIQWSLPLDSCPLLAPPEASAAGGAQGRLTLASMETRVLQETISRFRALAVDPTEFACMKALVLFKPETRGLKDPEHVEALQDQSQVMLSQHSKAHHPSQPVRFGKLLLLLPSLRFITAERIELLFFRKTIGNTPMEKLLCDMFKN

[20] = HeLa cell cytotoxicity, dose response, cytotoxicity control for MgcRacGAP inhibitor project (AID 624300); type: functional
[21] = molecular target: T4, Rac GTPase-activating protein 1 (Homo sapiens, UniProt Q9H0H5); assay: MgcRacGAP GTPase-activating activity inhibitors, confirmation, biochemical, ADP Hunter fluorescence, primary and confirmatory (AID 624330); type: functional
T4 sequence (Q9H0H5 whole entry): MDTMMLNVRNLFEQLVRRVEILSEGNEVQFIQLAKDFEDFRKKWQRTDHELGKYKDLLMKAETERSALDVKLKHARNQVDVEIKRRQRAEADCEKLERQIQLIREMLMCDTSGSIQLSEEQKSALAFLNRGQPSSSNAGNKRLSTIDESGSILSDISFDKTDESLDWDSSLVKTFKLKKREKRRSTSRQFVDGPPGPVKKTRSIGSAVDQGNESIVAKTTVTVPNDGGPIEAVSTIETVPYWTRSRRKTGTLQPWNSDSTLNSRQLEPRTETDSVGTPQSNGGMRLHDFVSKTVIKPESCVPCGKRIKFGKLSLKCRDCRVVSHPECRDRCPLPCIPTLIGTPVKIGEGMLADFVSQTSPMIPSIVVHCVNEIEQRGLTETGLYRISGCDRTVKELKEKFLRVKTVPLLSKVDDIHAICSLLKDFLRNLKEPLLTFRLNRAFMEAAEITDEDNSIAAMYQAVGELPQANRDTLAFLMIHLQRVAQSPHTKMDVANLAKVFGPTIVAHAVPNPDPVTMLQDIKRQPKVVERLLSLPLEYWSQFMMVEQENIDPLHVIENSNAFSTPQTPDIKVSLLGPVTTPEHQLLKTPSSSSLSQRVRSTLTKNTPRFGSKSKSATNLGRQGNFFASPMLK

[22] = HEK293T cell cytotoxicity, dose response, cytotoxicity control for HIV Vif inhibitor project, cherry-picks (AID 652208); type: functional, cell-based
[23] = NIH/3T3 fibroblast cytotoxicity, dose response, cytotoxicity control for T. cruzi growth inhibitor project, cell-based, cherry-pick samples, set 2 (AID 651817); type: functional; settings: NIH3T3
[24] = molecular target: Paired box protein Pax-8 (Homo sapiens, UniProt Q06710); assay: inhibitors of PAX8-driven TPO luciferase reporter, dose response, RMG-I cells, cherry-pick (AID 687027); type: functional, cell-based;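 note: luciferase reporter driven by Pax8 target thyroperoxidase promoter measured by SteadyGlo luminescence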
Chain of Paired box protein Pax-8 (Q06710 whole entry): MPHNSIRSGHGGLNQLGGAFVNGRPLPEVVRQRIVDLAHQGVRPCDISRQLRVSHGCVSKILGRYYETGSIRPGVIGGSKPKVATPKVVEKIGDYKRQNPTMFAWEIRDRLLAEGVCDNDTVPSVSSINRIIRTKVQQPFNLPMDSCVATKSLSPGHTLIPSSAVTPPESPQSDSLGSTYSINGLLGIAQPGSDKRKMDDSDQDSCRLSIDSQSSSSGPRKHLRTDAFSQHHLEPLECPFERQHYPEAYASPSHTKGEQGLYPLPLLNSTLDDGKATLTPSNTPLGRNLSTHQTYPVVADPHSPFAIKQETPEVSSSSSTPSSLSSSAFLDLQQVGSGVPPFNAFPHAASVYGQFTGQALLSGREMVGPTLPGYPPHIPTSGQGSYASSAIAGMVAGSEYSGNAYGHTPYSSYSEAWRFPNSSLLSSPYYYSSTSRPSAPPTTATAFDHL

[25] = NIH:OVCAR-3 ovarian cancer cell cytotoxicity, dose response, PAX8 inhibitor project, plate reader, dry powder samples (AID 743044); type: functional, cell-based
[26] = IGROV1 ovarian cancer cell cytotoxicity, dose response, PAX8 inhibitor project, plate reader, dry powder samples (AID 743043); type: functional, cell-based; settings: IGROV-1
[27] = non-specific cell cytotoxicity, dose response, cytotoxicity control for PAX8 inhibitor project, plate reader, dry powder samples (AID 743021); type: functional, cell-based
[28] = miR-122 activators in hepatoma reporter cells, dose response, cell-based, Huh7 psiCHECK-miR122, Renilla luciferase, cherry-picked (AID 651956); type: functional;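 note: huh7 hepatoma cells stably carrying a psiCHECK-2 miR-122 sensor plasmid; renilla luciferase signal reporting endogenous miR-122 activity after 48 h compound exposure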
[29] = HEK293T cytotoxicity, dose response, cytotoxicity control for miR-122 modulator project, cell-based, activator set, cherry-pick (AID 720690); type: functional;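 note: HEK293T human cells scored for general mammalian cytotoxicity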
[30] = inhibitors of CMV-promoter luciferase reporter, dose response, counter-screen for Pax8 inhibitor project, cell-based, HEK293, luminescence, dry powder (AID 743020); type: functional
[31] = cytotoxicity in OVCAR8 ovarian cancer cells, dose response, PAX8 project, cell-based, plate reader, dry powder samples (AID 743197); type: functional; settings: OVCAR-8

Chain of FAD-linked sulfhydryl oxidase ALR (P55789 whole entry): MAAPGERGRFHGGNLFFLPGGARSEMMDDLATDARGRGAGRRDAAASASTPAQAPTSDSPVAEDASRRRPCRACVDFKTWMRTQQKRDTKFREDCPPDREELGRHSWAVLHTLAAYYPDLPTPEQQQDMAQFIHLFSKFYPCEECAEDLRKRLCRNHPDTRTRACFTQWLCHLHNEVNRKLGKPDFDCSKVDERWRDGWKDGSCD

CN(C)P(=O)(C(Cl)=C(N1CCCCC1)N1CCCCC1)N(C)C
AC50 [1]: 41.1 µM (active)
EC50 [2]: > 91.1 µM (inactive)
EC50 [3]: > 91.1 µM (inactive)

COc1ccc(CNC(=O)c2nc(S(=O)(=O)Cc3ccccc3)ncc2Cl)cc1
AC50 [4]: 4.17 µM (active)
EC50 [5]: 4.07 µM (active)
AC50 [6]: 956 nM (active)
AC50 [7]: 30.8 µM (active)
AC50 [8]: 7.01 µM (active)
IC50 [9]: 2.96 µM (active)
IC50 [10]: 21 µM (inactive)

CCc1nnc(NS(=O)(=O)c2ccc(NC=C3C(=O)CC(C)(C)CC3=O)cc2)s1
IC50 [11]: 60.8 µM (inactive)

CCOc1ccc(S(=O)(=O)NCc2ccncc2)cc1NC(=O)c1ccccc1
IC50 [12]: > 80 µM (inactive)
IC50 [13]: 33.2 µM (inactive)
IC50 [14]: > 21.8 µM (inactive)

CCc1nc(C)cc2c1sc1ccccc12
EC50 [2]: > 91.2 µM (inactive)
EC50 [3]: > 91.2 µM (inactive)

O=C1NC(=O)N(c2ccc(Cl)cc2)C(=O)/C1=C\Nc1ccc(S(=O)(=O)Nc2nccs2)cc1
IC50 [11]: 74.7 µM (inactive)

O=C1/C(=C\c2ccc([N+](=O)[O-])cc2)CS(=O)(=O)C/C1=C/c1ccc([N+](=O)[O-])cc1
IC50 [15]: > 80 µM (inactive)
AC50 [16]: 353 nM (active)
CC50 [17]: 460 nM (active)
IC50 [18]: > 100 µM (active)
IC50 [9]: 0.93 µM (active)
IC50 [19]: 2 µM (active)
IC50 [10]: 36.4 µM (inactive)
CC50 [20]: 25 µM (active)
IC50 [21]: 24.8 µM (active)

O=C(c1cc(-c2ccncc2)nc2ccccc12)N1CCN(Cc2ccccc2)CC1
AC50 [22]: > 52 µM (inactive)

Cc1ccc(S(=O)(=O)Nc2ccc3c(c2)CC(=O)N([C@@H](C)CO)C[C@@H](C)[C@H](CN(C)Cc2ccc(Cl)c(Cl)c2)O3)cc1
AC50 [23]: 12.3 µM (active)
AC50 [24]: 5.67 µM (active)
AC50 [25]: 31.8 µM (active)
AC50 [26]: 49.9 µM (active)

COc1cc(C=C2C(=O)C=CC2=O)ccc1O
AC50 [24]: 1.63 µM (active)
AC50 [27]: 19.1 µM (active)

CN1C(=O)c2cc(NS(=O)(=O)c3ccc(Cl)cc3)ccc2OC[C@@H]2O[C@H](CC(=O)N3CCc4ccccc4C3)CC[C@H]21
AC50 [28]: 19.1 µM (active)
AC50 [29]: 46.9 µM (active)

C[C@H](CO)N1C[C@H](C)[C@H](CN(C)Cc2ccc(Cl)c(Cl)c2)Oc2ccc(NS(=O)(=O)c3ccc(F)cc3)cc2CC1=O
AC50 [23]: 9.99 µM (active)

COc1ccc(NC(=O)N(C)C[C@H]2OCCCC[C@@H](C)Oc3ccc(NC(=O)Nc4ccc(C(F)(F)F)cc4)cc3C(=O)N([C@@H](C)CO)C[C@@H]2C)cc1
AC50 [24]: 3.41 µM (active)
AC50 [30]: 41 µM (active)
AC50 [25]: 24 µM (active)
AC50 [31]: > 70 µM (inactive)

CC(C)CNc1cc(NC(=O)c2ccccc2)ncn1
IC50 [14]: > 21.8 µM (inactive)
